According to US11324826B2, “Multifunctional treatment and diagnostic compositions and methods” (priority 2018, dated 2022):
Where “and” joins values, the source holds several entries; their conditions need not be identical. Equal values may be shown once.

How the values were obtained:
BL21 E. coli [1] = experiment: In vitro BL21 E. coli growth inhibition in aerobic conditions, visible light versus dark; format: cell-based; settings: growth recorded after 48 hours
Experimental: Method to assess bacteria inhibition examined in vitro effects with BL21 E. coli. […] Prior art procedure reported in Photochemistry and Photobiology 2010, 86 (4), 890-894 was followed to grow E. coli cells, even though other prior art procedures can be used. BL21 was selected because of availability. […] Luria Broth (LB)-Lennox formulation were allowed to grow in an incubator at 28° C. shaking at 250 rpm until the beginning of their exponential growth phase (A600=0.2). For each experiment, one milliliter of the E. coli solution was centrifuged and washed with sterile water once. After removing washing liquid, the E. coli solutions were then re-suspended in 500.0 μL of sterile water and 200 μL of stock solutions of each of the following were added: (a) DHN (4.2×10^−44.20×10^−4 M), (b) Juglone (4.2×10^−44.20×10^−4 M), (c) Fe(III) (3.5×10^−4 M) and TMPyP (2.1×10^−52.10×10^−5 M), (d) DHN (4.2×10^−44.20×10^−4 M) and TMPyP (2.1×10^−52.10×10^−5 M), (e) Fe(III) (3.5×10^−4M), DHN (4.2×10^−4 M) and TMPyP (2.1×10^−5 M), (f) Fe(III) (3.5×10^−4 M), Juglone (4.2×10^−4 M) and TMPyP (2.1×10^−5 M), and TMPyP (2.1×10^−5).
Controls of each sample were prepared similarly and kept covered to assure that no light was reacted with the TMPyP while other samples were irradiated in a Rayonet photoreactor for 10 minutes. After irradiation, the 700.0 μL samples were briefly vortexed and then 20.0 μL of each sample was spread evenly over individual petri dishes containing LB agar. The plates were inverted, then incubated at 28° C. for 48 hours.
A “light versus dark” comparison study was performed by introducing treatment composition into two equal concentrations of E. coli bacteria solutions, one E. coli solution was kept in dark while other was irradiated with visible light.
As part of the test, a comparison study, including “light versus dark” was performed of treatment composition (FIG. 22E Fe(III) (3.5×10^−4 M), DHN (4.2×10^−4M) and TMPyP (2.1×10^−5 M), versus FIG. 22A DHN (4.2×10^−4 M), FIG. 22B Juglone (4.2×10^−4 M), FIG. 22C Fe(III) (3.5×10^−4 M) and TMPyP (2.1×10^−5 M), FIG. 22D DHN (4.2×10^−4 M) and TMPyP (2.1×10^−5 M), and FIG. 22F Fe(III) (3.5×10^−4 M), Juglone (4.2×10^−4 M) and TMPyP (2.1×10^−5 M).

[2] = reported in the prior art; cited from earlier work
[3] = Photooxidation of DHN under visible light irradiation in aerobic solution, DHN absorption monitored at 301 nm; settings: for Rate, first order rate constant of DHN photooxidation: aerobic conditions, visible light, acetonitrile:water (6:4)
Experimental: For a typical experiment, microliter amounts of standard solutions were combined, for illustration not limitation, microliter amounts of a standard solution of Fe(III) solutions (30 μL of 1.0×10^−2 M) and DHN solution (36 μL of 1.0×10^−2 M) added into a cuvette containing 3 mL of solution TMPyP (6.00×10^−6 M). Quartz cuvettes with 1 cm path-length and 3 mL volume were used for all measurements.
For singlet oxygenation of 1,5-dihydroxynaphthalene (DHN) by TMPyP in aqueous solution, a 3 mL solution of DHN (1.2×10^−4 M) and TMPyP (6.0×10^−6 M) was prepared by mixing 36 μL of 1×10^−2 M of DHN standard solution and 18 μL of 1×10^−3 M of TMPyP standard solution with ultrapure water. The solution was prepared at room temperature in an open atmosphere. Photooxygenation of samples was performed in a Rayonet photoreactor and monitored by recording a decrease of UV-vis absorption. For example, photoxygenation of DHN by TMPyP was performed in a Rayonet photoreactor for approximately twenty minutes at 28° C. and the photooxygenation of DHN was monitored by recording a decrease of UV-vis absorption of DHN at 301 nm for 20 minutes in 2 minutes intervals. The effect of metal ions on singlet oxygen generation was studied similarly except with the addition of microliter amounts of M^2+ or M^3+ ions (1×10^−2 M) (positively charged cations with a +2 charge or a +3 charge) into a DHN/TMPyP aqueous solution.

[4] = Photooxidation of DHN under visible light irradiation in anaerobic (argon purged) solution, DHN absorption monitored at 301 nm; settings: for Rate, first order rate constant of DHN photooxidation: anaerobic conditions, visible light, acetonitrile:water (6:4); for Photooxidation of DHN (in words): anaerobic
Experimental: First, the treatment composition (DHN+TMPyP+Fe(III)) was compared against commercially available Fe(III)TMPyP and prepared TMPyP+Fe(II), all in presence of DHN, to determine if any or all can produce hydroxyl radical (OH) in anaerobic condition. An aqueous solution of TMPyP and DHN was thoroughly purged with argon followed by irradiation with visible light. DHN's absorption at 301 nm was recorded in 2 minute intervals to monitor in situ production of OH in solution.

[5] = aqueous solution, 655 nm CW laser, calculated with Equation 1
Experimental: Singlet Oxygen Quantum Yield (ΦΔ) of TMPyP was determined using DHN (1.2×10^−4 M) as a singlet oxygen quencher and methylene blue (MB) as a reference standard. A 3 mL solution of TMPyP (6.0×10^−6 M) solution and MB (1.0×10^−5 M) solution both of which contain DHN (1.2×10^−4 M) were prepared. Each solution was irradiated with a 655 nm CW laser and the UV-vis spectrum of each solution was recorded at 1 min intervals for 5 minutes. The quantum yields were calculated with Equation 1 by using ΦΔ(s) of MB (ΦΔ=0.52) reported in the prior art.
[formula] In Equation 1, S is the slope of the plot of the absorbance versus irradiation, and F is the absorption correction factor.
To determine the efficiency of TMPyP for singlet oxygen generation in aqueous solution, ^1O2 quantum yield (ΦΔ) was calculated by using methylene blue as a standard with a known ΦΔ of 0.52. […] Most importantly, the reaction of DHN and ^1O2 can be monitored by observing gradual decrease of the absorption of DHN peaks from 295 nm to 355 nm and so DHN can be used as a ^1O2 probe for ^1O2 quantum yield (ΦΔ) measurement.
Above cited Equation 1 was followed to calculate ^1O2 quantum yield (ΦΔ) for TMPyP, where S is the slope of the plot of the absorbance versus irradiation, and F is the absorption correction factor.

[6] = aqueous solution 6.0×10^−6 M, excitation 423 nm, calculated with Equation 3
Experimental: For fluorescence study, three solutions of 3 mL volume were prepared. Study solution 1 (aqueous solution of TMPyP) was prepared by mixing 18 μL of 1.0×10^−3 M TMPyP with ultrapure water. Study solution 2 (aqueous solution of TMPyP and Fe(III) ions) was made by mixing 18 μL of 1.0×10^−3 M TMPyP and 30 μL of 1.0×10^−2 M iron(III) chloride with ultrapure water. Study solution 3 (aqueous solution of TMPyP and DHN) was prepared by mixing 18 μL of 1.0×10^−3 M TMPyP and 36 μL of 1.0×10^−2 M DHN with ultrapure water. Fluorescence emission was measured upon excitation of each solution at 423 nm with an excitation slit width of 10.0 nm and an emission slit width of 12.0 nm. Each experiment was carried out at room temperature and under normal atmospheric conditions.
Crystal violet (1.0×10^−5 M) with a known ΦF=0.020 in water was used as a standard.
Then the fluorescence quantum yield (ΦF) of TMPyP was calculated by using Equation 3 and crystal violet (1.0×10^−5 M) as a standard with ΦF=0.020 in water, fluorescence quantum yield known from the prior art.
[formula] where in Equation 3, A is the absorbance, F represents the area under the emissions curve, and n is the refractive index of the solvent used.

[7] = in water, prior art literature value; cited from earlier work
BL21 E. coli [8] = experiment: In vitro BL21 E. coli growth inhibition in hydrogen peroxide rich environment under dark conditions; format: cell-based; settings: alone at the experimental concentration (Fe(III) 1.0×10^−4 M or 1.0×10^−3 M; 400 μM H2O2)
Experimental: To determine utility for treatment of bacteria of the claimed treatment compositions in an aqueous H2O2 rich environment (typical tumor environment), E. coli bacteria were mixed with the treatment composition in the presence of H2O2 in dark conditions under normal room temperature and pressure. […] A series of control reactions were carried out to see if alone, any of Fe(III) ions with 1.0×10^−4 M concentration (FIG. 23A) or Fe(III) ions with 1.0×10^−3 M concentration (FIG. 23B) or 400 μM H2O2 (FIG. 23C) can inhibit the growth of E. coli bacteria under identical reaction conditions.

[9] = irradiated with visible light 10 minutes

In the case of `Oc1cccc2c(O)cccc12` [DHN, 1,5-dihydroxynaphthalene], the “Inhibition of E. coli growth” value (BL21 E. coli [1]; [9]) is reported as “very marginal inhibition effect” and the “Inhibition of E. coli growth” value (BL21 E. coli [1]; kept in dark) is reported as “almost no inhibition”.
In the case of `CN(C)c1ccc2nc3ccc(=[N+](C)C)cc-3sc2c1` [methylene blue], the “Singlet oxygen quantum yield (ΦΔ), prior art” value [2] is listed as 0.52.
With `Oc1ccc(-c2c3nc(c(-c4ccc(O)cc4)c4ccc([nH]4)c(-c4ccc(O)cc4)c4nc(c(-c5ccc(O)cc5)c5ccc2[nH]5)C=C4)C=C3)cc1` [p−THP, meso-tetra(p-hydroxyphenyl)porphine] the “Rate, first order rate constant of DHN photooxidation” value (from here on “Rate, first order rate constant”) [3] was 0.0008 s⁻¹ and the “Rate, first order rate constant” value [4] was 2e-05 s⁻¹.
In the case of `C[n+]1ccc(-c2c3nc(c(-c4cc[n+](C)cc4)c4ccc([nH]4)c(-c4cc[n+](C)cc4)c4nc(c(-c5cc[n+](C)cc5)c5ccc2[nH]5)C=C4)C=C3)cc1.[Cl-].[Cl-].[Cl-].[Cl-]` [TMPyP, meso-tetra(N-methyl-4-pyridyl) porphine tetrachloride], the “Maximum rate of photooxidation of DHN by TMPyP (k)” value ([3]; aerobic, Fe(III) ions about 50 μL of 1.0×10^−2 M) is reported as 0.000943 s⁻¹, the “Rate constant of DHN photooxidation by TMPyP” value ([3]; aerobic, metal free solution) is reported as 0.000658 s⁻¹ and the “Rate of photooxidation of DHN by TMPyP (k)” value ([3]; aerobic, upon addition of 10 μL of 1.0×10^−3 M of Fe(III) ions) is reported as 0.00039 s⁻¹. The “Rate of photooxidation of DHN by TMPyP (k)” value ([3]; aerobic, upon addition of 75 μL of 1.0×10^−2 M of Fe(III) ions) was 0.000568 s⁻¹, the “Photooxidation of DHN (in words)” value ([4]; absence of Fe(III) ions, FIG. 13) was “negligible photooxidation” and the “Photooxidation of DHN (in words)” value ([4]; presence of Fe(III) ions, FIG. 14) was “substantial photooxidation”. For the same compound, the “Singlet oxygen quantum yield (ΦΔ)” value [5] was 0.503, the “Fluorescence quantum yield (ΦF)” value [6] was 0.0139 and the “Singlet oxygen quantum yield (ΦΔ), prior art” value [2] was 0.58 and 0.74 and 0.9. For the same compound, the “Fluorescence quantum yield (ΦF), prior art” value [7] was 0.016.
With `C[n+]1ccc(C2=C3C=CC(=N3)C(c3cc[n+](C)cc3)=c3ccc4[n]3[Fe+][n]3c2ccc3C(c2cc[n+](C)cc2)=C2C=CC(=N2)C=4c2cc[n+](C)cc2)cc1` [Fe(III)TMPyP, Fe(III) bound meso-tetrakis(N-methyl-4-pyridyl) porphyrin] the “Rate constant of photooxidation of DHN” value ([3]; aerobic aqueous environment, FIG. 11) was 4.67e-05 s⁻¹, the “Rate Constant, kobs, of DHN decay kinetics” value ([3]; aerobic aqueous solution as printed, DHN 1.2×10^−4 M, porphyrin 6.0×10^−6 M, iron 1.0×10^−4 M, 301 nm) was 5.5e-05 s⁻¹ and the “Rate constant k of photo-oxidation of DHN” value ([4]; anaerobic aqueous environment, FIG. 12) was 5.5e-05 s⁻¹.
For `O=C1C=CC(=O)c2c(O)cccc21` [Juglone, 5-hydroxy-1,4-naphthalenedione], the “Inhibition of E. coli growth” value (BL21 E. coli [1]; [9]) was “complete inhibition” and the “Inhibition of E. coli growth” value (BL21 E. coli [1]; kept in dark) was “complete inhibition”.
In the case of `OO` [H2O2, hydrogen peroxide], the “Inhibition of growth of E. coli, control alone” value (BL21 E. coli [8]) is reported as “No noticeable inhibition”.
In the case of `CN(C)c1ccc(C(=C2C=CC(=[N+](C)C)C=C2)c2ccc(N(C)C)cc2)cc1` [Crystal violet], the “Fluorescence quantum yield (ΦF), prior art” value [7] is listed as 0.020.
In the case of `Oc1cccc(-c2c3nc(c(-c4cccc(O)c4)c4ccc([nH]4)c(-c4cccc(O)c4)c4nc(c(-c5cccc(O)c5)c5ccc2[nH]5)C=C4)C=C3)c1` [m−THP, meso-tetra(m-hydroxyphenyl)porphine], the “Rate, first order rate constant” value [3] is reported as 0.0012 s⁻¹ and the “Rate, first order rate constant” value [4] is reported as 4e-05 s⁻¹.
With `[Cl][Fe]([Cl])[Cl]` [Fe(III) ions, iron (III) chloride] the “Inhibition of growth of E. coli, control alone” value (BL21 E. coli [8]) was “No noticeable inhibition”.
